# From ChEMBL document CHEMBL1201862, “PubChem BioAssay data set” (2004)
#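 Interpolation was linear, between the two tested concentrations surrounding the appropriate level; five concentrations were tested over 48 hours in 96-well plates. Here, GI50 denotes the concentration required for 50% inhibition of growth.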 Activity calls are given as the source filed them. Cut-off read from the data, not from the text of the source: active = GI50 up to about 1.1 µM and inactive = higher.
# Columns and labels:
# Test in all cases: NCI-60 cell line screen, 48 h
# [1] = tested on: BT-549
# [2] = tested on: OVCAR-3
# [3] = tested on: KM12
# [4] = tested on: T47D
# [5] = tested on: CAKI-1
# [6] = tested on: SN12C
# [7] = tested on: SK-MEL-28
# [8] = tested on: OVCAR-8
# [9] = tested on: RXF 393
# [10] = tested on: HCT-15
# [11] = tested on: MDA-N
# [12] = tested on: Hs-578T
# [13] = tested on: COLO 205
# [14] = tested on: SW-620
# [15] = tested on: SK-OV-3
# [16] = tested on: UACC-257
# [17] = tested on: NCI-H226
# [18] = tested on: TK-10
# [19] = tested on: M14
Structure (SMILES),GI50 [1],GI50 [2],GI50 [3],GI50 [4],GI50 [5],GI50 [6],GI50 [7],GI50 [8],GI50 [9],GI50 [10],GI50 [11],GI50 [12],GI50 [13],GI50 [14],GI50 [15],GI50 [16],GI50 [17],GI50 [18],GI50 [19]
C[N+](CCCl)(CCCl)Cc1cccc2cccc([N+](=O)[O-])c12,> 100 µM (inactive),44.7 µM (inactive),> 100 µM (inactive),42.7 µM (inactive),31 µM (inactive),45.5 µM (inactive),> 100 µM (inactive),43.5 µM (inactive),> 100 µM (inactive),> 100 µM,> 100 µM (inactive),> 100 µM (inactive),25.8 µM (inactive),> 100 µM (inactive),> 100 µM (inactive),37.2 µM (inactive),> 100 µM (inactive),> 100 µM (inactive),> 100 µM (inactive)
O=C(CCN1CCCCC1)c1csc2ccccc12,> 100 µM (inactive),> 100 µM (inactive),33.1 µM (inactive),45.7 µM (inactive),> 100 µM (inactive),> 100 µM (inactive),> 100 µM (inactive),> 100 µM (inactive),> 100 µM (inactive),> 100 µM,> 100 µM (inactive),> 100 µM (inactive),> 100 µM (inactive),> 100 µM (inactive),> 100 µM (inactive),> 100 µM (inactive),> 100 µM (inactive),94.6 µM (inactive),> 100 µM (inactive)
CCOC(=O)C(NC(=O)c1ccccc1)(N1CCOCC1)C(F)(F)F (configuration not stated),> 100 µM (inactive),> 100 µM (inactive),> 100 µM (inactive),> 100 µM (inactive),> 100 µM (inactive),> 100 µM (inactive),> 100 µM (inactive),> 100 µM (inactive),> 100 µM (inactive),> 100 µM,> 100 µM (inactive),> 100 µM (inactive),> 100 µM (inactive),> 100 µM (inactive),> 100 µM (inactive),> 100 µM (inactive),> 100 µM (inactive),> 100 µM (inactive),> 100 µM (inactive)
Cc1ccc(O)c(C(c2cccc(C(c3cc(C)ccc3O)c3cc(C)ccc3O)c2)c2cc(C)ccc2O)c1,2.43 µM (inactive),2.21 µM (inactive),1.65 µM (inactive),1.98 µM (inactive),1.52 µM (inactive),1.83 µM (inactive),1.83 µM (inactive),2 µM (inactive),1.69 µM (inactive),1.87 µM,1.79 µM (inactive),1.56 µM (inactive),1.21 µM (inactive),1.66 µM (inactive),1.87 µM (inactive),1.94 µM (inactive),1.77 µM (inactive),1.82 µM (inactive),1.88 µM (inactive)
Cc1cc(O)c2c(c1)CC(O)C1=C2C(=O)c2c(O)ccc(OC3CC(O)C(OC4CC(OC5CCC(O)C(C)O5)C(O)C(C)O4)C(C)O3)c2C1=O (configuration not stated),1.86 µM (inactive),0.662 µM (active),1.74 µM (inactive),2.15 µM (inactive),1.71 µM (inactive),1.73 µM (inactive),1.92 µM (inactive),1.65 µM (inactive),1.46 µM (inactive),1.96 µM,1.84 µM (inactive),2.62 µM (inactive),1.39 µM (inactive),0.518 µM (active),2.33 µM (inactive),1.57 µM (inactive),1.5 µM (inactive),2.17 µM (inactive),1.5 µM (inactive)
C1COCCOP2(N3CC3)=NP(N3CC3)(=NP(N3CC3)(N3CC3)=N2)OCCOCCO1 (configuration not stated),> 100 µM (inactive),> 100 µM (inactive),> 100 µM (inactive),70.3 µM (inactive),> 100 µM (inactive),> 100 µM (inactive),–,> 100 µM (inactive),> 100 µM (inactive),> 100 µM,> 100 µM (inactive),> 100 µM (inactive),> 100 µM (inactive),> 100 µM (inactive),> 100 µM (inactive),> 100 µM (inactive),> 100 µM (inactive),> 100 µM (inactive),> 100 µM (inactive)
CCOC(=O)c1cc(C2CCN(CC(C)CC)C2=S)c(C(=O)/C=C(/C)N)[nH]1 (configuration not stated),> 50 µM (inactive),> 50 µM (inactive),> 50 µM (inactive),> 50 µM (inactive),> 50 µM (inactive),> 50 µM (inactive),–,> 50 µM (inactive),> 50 µM (inactive),> 50 µM,> 50 µM (inactive),> 50 µM (inactive),> 50 µM (inactive),> 50 µM (inactive),> 50 µM (inactive),> 50 µM (inactive),> 50 µM (inactive),> 50 µM (inactive),> 50 µM (inactive)
COC(=O)c1cc(C#N)[nH]c1-c1ccsc1,58.7 µM (inactive),> 100 µM (inactive),> 100 µM (inactive),25.1 µM (inactive),51.2 µM (inactive),> 100 µM (inactive),> 100 µM (inactive),> 100 µM (inactive),72.4 µM (inactive),70.1 µM,> 100 µM (inactive),> 100 µM (inactive),> 100 µM (inactive),> 100 µM (inactive),> 100 µM (inactive),54.3 µM (inactive),> 100 µM (inactive),> 100 µM (inactive),> 100 µM (inactive)
O=C(N/N=C/c1ccc([N+](=O)[O-])cc1)c1cccc2nc3ccccc3nc12,> 55.8 µM (inactive),> 100 µM (inactive),> 100 µM (inactive),> 100 µM (inactive),> 100 µM (inactive),> 100 µM (inactive),> 100 µM (inactive),> 90.8 µM (inactive),33.3 µM (inactive),> 55.7 µM,> 100 µM (inactive),9.75 µM (inactive),2.65 µM (inactive),> 100 µM (inactive),> 56.9 µM (inactive),> 100 µM (inactive),> 100 µM (inactive),> 38 µM (inactive),> 100 µM (inactive)
OC(C/C(=N\N=C(/CC(O)(C(F)(F)F)C(F)(F)F)c1ccccc1)c1ccccc1)(C(F)(F)F)C(F)(F)F,> 10 µM (inactive),> 10 µM (inactive),> 10 µM (inactive),> 10 µM (inactive),> 10 µM (inactive),> 10 µM (inactive),> 10 µM (inactive),> 10 µM (inactive),3.17 µM (inactive),> 10 µM,> 10 µM (inactive),> 10 µM (inactive),> 10 µM (inactive),> 10 µM (inactive),> 10 µM (inactive),> 10 µM (inactive),> 10 µM (inactive),> 10 µM (inactive),> 10 µM (inactive)
Cc1cc(C)nc(NC(=S)Nc2cccc(Cl)c2)c1,> 100 µM (inactive),> 100 µM (inactive),> 100 µM (inactive),> 88.3 µM (inactive),20.3 µM (inactive),> 100 µM (inactive),> 100 µM (inactive),> 100 µM (inactive),> 100 µM (inactive),> 100 µM,> 100 µM (inactive),> 100 µM (inactive),> 80.9 µM (inactive),> 100 µM (inactive),> 100 µM (inactive),> 100 µM (inactive),> 100 µM (inactive),> 35.9 µM (inactive),> 100 µM (inactive)
